In patent US11208386B2, “Inhibitors of protein arginine deiminases (PADs) and methods of preparation and use thereof” (University of Massachusetts, priority 2016, dated 2021):

Legend:
Type in all cases: biochemical
[1] = target: T1, PAD1 (Homo sapiens, UniProt Q9ULC6); assay: Inactivation kinetics, PAD1; conditions: for kinact/KI: a: single kobs determined, b: from a linear fit; for Fold PAD1 Selectivity: kinact/KI relative to least inhibited isozyme (1.0)
T1 construct: made in house
T1 sequence (Q9ULC6 1-663): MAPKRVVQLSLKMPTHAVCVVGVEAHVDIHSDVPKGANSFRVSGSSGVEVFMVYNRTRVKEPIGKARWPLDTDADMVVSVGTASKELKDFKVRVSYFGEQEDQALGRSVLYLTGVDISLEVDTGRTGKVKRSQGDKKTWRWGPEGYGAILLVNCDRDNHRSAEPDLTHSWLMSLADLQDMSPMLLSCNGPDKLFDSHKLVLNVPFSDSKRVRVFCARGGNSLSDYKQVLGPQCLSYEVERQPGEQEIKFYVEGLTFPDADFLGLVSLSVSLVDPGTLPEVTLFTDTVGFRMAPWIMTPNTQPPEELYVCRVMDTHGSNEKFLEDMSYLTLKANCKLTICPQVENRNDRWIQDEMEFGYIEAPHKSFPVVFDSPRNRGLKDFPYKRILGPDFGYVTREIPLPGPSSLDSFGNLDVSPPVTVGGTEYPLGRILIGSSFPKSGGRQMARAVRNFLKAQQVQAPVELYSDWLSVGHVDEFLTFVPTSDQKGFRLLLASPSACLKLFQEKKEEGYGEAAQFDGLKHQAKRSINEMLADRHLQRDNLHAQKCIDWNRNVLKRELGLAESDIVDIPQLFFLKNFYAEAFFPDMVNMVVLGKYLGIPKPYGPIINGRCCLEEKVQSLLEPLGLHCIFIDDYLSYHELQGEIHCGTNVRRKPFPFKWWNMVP
How it was run: (§1)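 PAD1, 2 or 4 (2.0 μM) or PAD3 (5.0 μM) preincubated at 37 °C with varying inhibitor in 50 mM HEPES, 10 mM CaCl2, 2 mM DTT, pH 7.6. Timed aliquots assayed 15 min with 10 mM BAEE (BAA for PAD3); citrulline quantified by COLDER.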

[2] = target: T2, PAD2 (Homo sapiens, UniProt Q9Y2J8); assay: Inactivation kinetics, PAD2; conditions: for kinact/KI: a: single kobs determined, b: from a linear fit, other footnotes: from kinact and KI; for Fold PAD2 Selectivity: kinact/KI relative to least inhibited isozyme (1.0); for Ki / kinact: PAD2, table footnote
T2 construct: made in house
T2 sequence (Q9Y2J8 whole entry): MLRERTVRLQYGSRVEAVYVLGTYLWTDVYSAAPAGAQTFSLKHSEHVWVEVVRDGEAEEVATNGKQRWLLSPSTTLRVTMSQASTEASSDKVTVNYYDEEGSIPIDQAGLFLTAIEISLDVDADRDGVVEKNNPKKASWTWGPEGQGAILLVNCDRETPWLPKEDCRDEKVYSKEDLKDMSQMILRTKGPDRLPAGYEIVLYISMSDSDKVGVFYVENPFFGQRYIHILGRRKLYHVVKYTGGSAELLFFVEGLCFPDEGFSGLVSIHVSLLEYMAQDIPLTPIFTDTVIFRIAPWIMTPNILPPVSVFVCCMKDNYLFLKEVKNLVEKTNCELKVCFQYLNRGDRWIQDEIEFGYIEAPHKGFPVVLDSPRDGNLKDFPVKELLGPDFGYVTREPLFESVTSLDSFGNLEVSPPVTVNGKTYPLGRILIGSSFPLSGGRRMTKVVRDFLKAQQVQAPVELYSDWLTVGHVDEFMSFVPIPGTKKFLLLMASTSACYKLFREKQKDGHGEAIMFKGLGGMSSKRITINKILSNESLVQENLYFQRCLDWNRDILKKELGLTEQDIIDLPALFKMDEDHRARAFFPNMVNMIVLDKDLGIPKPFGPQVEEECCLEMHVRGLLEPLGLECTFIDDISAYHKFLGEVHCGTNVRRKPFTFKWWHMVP
How it was run: as §1

[3] = target: T3, PAD3 (Homo sapiens, UniProt Q9ULW8); assay: Inactivation kinetics, PAD3; conditions: for kinact/KI: a: single kobs determined; for Fold PAD3 Selectivity: kinact/KI relative to least inhibited isozyme (1.0)
T3 construct: made in house
T3 sequence (Q9ULW8 1-664): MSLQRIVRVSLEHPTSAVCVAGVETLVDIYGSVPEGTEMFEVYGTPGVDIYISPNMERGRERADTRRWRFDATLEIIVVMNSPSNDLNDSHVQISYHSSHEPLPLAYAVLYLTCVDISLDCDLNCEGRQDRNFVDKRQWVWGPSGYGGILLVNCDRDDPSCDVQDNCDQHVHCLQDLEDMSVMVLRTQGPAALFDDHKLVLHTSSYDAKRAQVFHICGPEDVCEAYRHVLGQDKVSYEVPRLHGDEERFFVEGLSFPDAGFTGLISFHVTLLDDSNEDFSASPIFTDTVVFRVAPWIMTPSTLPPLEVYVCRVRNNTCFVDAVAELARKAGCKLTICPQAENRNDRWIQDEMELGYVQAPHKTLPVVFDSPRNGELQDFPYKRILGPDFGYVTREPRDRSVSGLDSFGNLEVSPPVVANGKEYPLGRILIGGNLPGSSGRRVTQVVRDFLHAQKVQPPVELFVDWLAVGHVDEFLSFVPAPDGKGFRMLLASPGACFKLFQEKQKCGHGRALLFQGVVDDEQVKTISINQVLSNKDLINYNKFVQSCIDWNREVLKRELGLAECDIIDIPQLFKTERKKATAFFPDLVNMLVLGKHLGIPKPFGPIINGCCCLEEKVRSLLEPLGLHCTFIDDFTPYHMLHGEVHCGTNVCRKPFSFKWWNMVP
How it was run: as §1

[4] = target: T4, PAD4 (Homo sapiens, UniProt Q9UM07); assay: Inactivation kinetics, PAD4; conditions: for kinact/KI: a: single kobs determined, b: from a linear fit; for Fold PAD4 Selectivity: kinact/KI relative to least inhibited isozyme (1.0)
T4 construct: made in house
T4 sequence (Q9UM07 whole entry): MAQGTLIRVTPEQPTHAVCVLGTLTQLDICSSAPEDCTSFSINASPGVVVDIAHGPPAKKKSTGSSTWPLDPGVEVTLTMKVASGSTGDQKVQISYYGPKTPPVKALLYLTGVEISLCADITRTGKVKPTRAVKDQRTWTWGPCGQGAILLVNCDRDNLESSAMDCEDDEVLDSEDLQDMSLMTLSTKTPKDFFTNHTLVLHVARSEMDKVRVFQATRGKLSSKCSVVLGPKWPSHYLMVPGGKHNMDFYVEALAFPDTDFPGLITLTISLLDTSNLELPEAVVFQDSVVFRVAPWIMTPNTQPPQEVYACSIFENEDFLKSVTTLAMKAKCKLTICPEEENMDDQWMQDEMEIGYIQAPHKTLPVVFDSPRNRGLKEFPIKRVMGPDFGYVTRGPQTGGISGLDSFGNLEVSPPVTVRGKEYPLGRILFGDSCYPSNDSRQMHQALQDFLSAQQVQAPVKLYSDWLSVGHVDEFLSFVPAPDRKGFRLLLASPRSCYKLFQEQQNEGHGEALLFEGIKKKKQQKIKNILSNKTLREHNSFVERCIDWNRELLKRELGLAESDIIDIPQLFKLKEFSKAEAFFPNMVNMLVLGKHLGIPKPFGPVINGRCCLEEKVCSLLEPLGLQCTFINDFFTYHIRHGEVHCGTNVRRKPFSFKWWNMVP
How it was run: as §1

Row | kinact/KI [1] [M⁻¹ s⁻¹] | Fold PAD1 Selectivity [1] [fold] | kinact/KI [2] [M⁻¹ s⁻¹] | Fold PAD2 Selectivity [2] [fold] | kinact/KI [3] [M⁻¹ s⁻¹] | Fold PAD3 Selectivity [3] [fold] | kinact/KI [4] [M⁻¹ s⁻¹] | Fold PAD4 Selectivity [4] [fold] | Ki [2] [µM] | kinact [2] [s⁻¹] | Compound
1 | 627 | 6.2 | 340 | 3.4 | 113 | 1.1 | 101 | 1.0 |  |  | COc1cccc2c1nc([C@H](CCCNC(=N)CF)NC(=O)c1ccccc1C(=O)O)n2C [Compound 6i, N1-(2-Carboxyl)benzoyl-N5-(2-fluoro-1-iminoethyl)-1-(4-methoxy-1-methyl-benzo[d]imidazol-2-yl)-L-ornithine]
2 | 1120 | 7.0 | 308 | 1.9 | 160 | 1.0 | 235 | 1.5 |  |  | COc1cccc2c1nc([C@H](CCCNC(=N)CCl)NC(=O)c1ccccc1C(=O)O)n2C [Compound 6j]
3 | 1290 | 24 | 177 | 3.3 | 53.3 | 1.0 | 552 | 10 | 210 | 0.0373 | N=C(CF)NCCC[C@H](NC(=O)c1cccc2c1C(=O)NC2)c1nc2ccccc2[nH]1 [Compound 7a, N1-(3-oxoisoindoline)benzol-N5-(2-fluoro-1-iminoethyl)-1-(1H-benzo[d]imidazol-2-yl)-L-ornithine]
4 | 3010 | 6.5 | 1090 | 2.3 | 467 | 1.0 | 968 | 2.1 |  |  | N=C(CCl)NCCC[C@H](NC(=O)c1cccc2c1C(=O)NC2)c1nc2ccccc2[nH]1 [Compound 7b, N1-(3-oxoisoindoline)benzol-N5-(2-chloro-1-iminoethyl)-1-(1H-benzo[d]imidazol-2-yl)-L-ornithine]
5 | 1140 | 25 | 413 | 8.9 | 46.7 | 1.0 | 48.5 | 1.0 |  |  | Cn1c([C@H](CCCNC(=N)CF)NC(=O)c2cccc3c2C(=O)NC3)nc2ccccc21 [Compound 7c]
6 | 2430 | 61 | 1220 | 3.1 | 808 | 2.0 | 398 | 1.0 |  |  | Cn1c([C@H](CCCNC(=N)CCl)NC(=O)c2cccc3c2C(=O)NC3)nc2ccccc21 [Compound 7d, N1-(3-oxoisoindoline)benzol-N5-(2-chloro-1-iminoethyl)-1-(1-methyl-benzo[d]imidazol-2-yl)-L-ornithine]
7 | 675 | 37 | 1030 | 56 | 18.3 | 1.0 | 31.7 | 1.7 | 32.9 | 0.0337 | CCn1c([C@H](CCCNC(=N)CF)NC(=O)c2cccc3c2C(=O)NC3)nc2ccccc21 [Compound 7e, N1-(3-oxoisoindoline)benzoyl-N5-(2-fluoro-1-iminoethyl)-1-(1-ethyl-benzo[d]imidazol-2-yl)-L-ornithine]
8 | 2200 | 10 | 1010 | 4.8 | 377 | 1.8 | 210 | 1.0 |  |  | CCn1c([C@H](CCCNC(=N)CCl)NC(=O)c2cccc3c2C(=O)NC3)nc2ccccc21 [Compound 7f, N1-(3-oxoisoindoline)benzol-N5-(2-chloro-1-iminoethyl)-1-(1-ethyl-benzo[d]imidazol-2-yl)-L-ornithine]
9 | 104 | 12 | 172 | 20 | 8.5 | 1.0 | 20.5 | 2.4 |  |  | CC(C)n1c([C@H](CCCNC(=N)CF)NC(=O)c2cccc3c2C(=O)NC3)nc2ccccc21 [Compound 7g, N1-(3-oxoisoindoline)benzol-N5-(2-fluoro-1-iminoethyl)-1-(1-isopropyl-benzo[d]imidazol-2-yl)-L-ornithine]
10 | 960 | 27 | 282 | 8.0 | 112 | 3.2 | 35 | 1.0 |  |  | CC(C)n1c([C@H](CCCNC(=N)CCl)NC(=O)c2cccc3c2C(=O)NC3)nc2ccccc21 [Compound 7h, N1-(3-oxoisoindoline)benzol-N5-(2-chloro-1-iminoethyl)-1-(1-isopropyl-benzo[d]imidazol-2-yl)-L-ornithine]
11 | 1530 | 42 | 292 | 8.0 | 138 | 3.8 | 36.3 | 1.0 |  |  | COc1cccc2[nH]c([C@H](CCCNC(=N)CF)NC(=O)c3cccc4c3C(=O)NC4)nc12 [Compound 7i, N1-(3-oxoisoindoline)benzol-N5-(2-fluoro-1-iminoethyl)-1-(4-methoxy-1H-benzo[d]imidazol-2-yl)-L-omithine]
12 | 2180 | 30 | 802 | 11 | 502 | 6.9 | 72.3 | 1.0 |  |  | COc1cccc2[nH]c([C@H](CCCNC(=N)CCl)NC(=O)c3cccc4c3C(=O)NC4)nc12 [Compound 7j, N1-(3-oxoisoindoline)benzoyl-N5-(2-chloro-1-iminoethyl)-1-(4-methoxy-1H-benzo[d]imidazol-2-yl)-L-ornithine]
13 | 2150 | 29 | 3500 | 47 | 73.8 | 1.0 | 238 | 3.2 | 16.5 | 0.0578 | COc1cccc2c1nc([C@H](CCCNC(=N)CF)NC(=O)c1cccc3c1C(=O)NC3)n2C [Compound 7k, N1-(3-oxoisoindoline)benzoyl-N5-(2-fluoro-1-iminoethyl)-1-(4-methoxy-1-methyl-benzo[d]imidazol-2-yl)-L-ornithine]
14 | 1300 | 3.9 | 1300 | 3.9 | 332 | 1.0 | 422 | 1.3 |  |  | COc1cccc2c1nc([C@H](CCCNC(=N)CCl)NC(=O)c1cccc3c1C(=O)NC3)n2C [Compound 7l, N1-(3-oxoisoindoline)benzoyl-N5-(2-chloro-1-iminoethyl)-1-(4-methoxy-1-methyl-benzo[d]imidazol-2-yl)-L-ornithine]
15 | 1070 | 65 | 1570 | 95 | 20 | 1.2 | 16.5 | 1.0 | 55.2 | 0.0868 | CCOc1cccc2c1nc([C@H](CCCNC(=N)CF)NC(=O)c1cccc3c1C(=O)NC3)n2C [Compound 7m]
